Measurements published in patent US12590066B2, “Fused-heterocyclyl-carbonohydrazonoyl dicyanide compounds and use thereof” (KOREA INSTITUTE OF SCIENCE AND TECHNOLOGY, priority 2020, dated 2026).
pIC50: −log10 of the molar value.

Experiments:
tau protein = target: T1, tau protein (Homo sapiens, UniProt P10636); test: Tau-BiFC cell model, inhibition of Forskolin-induced tau protein aggregation; type: cell-based; conditions: Forskolin 30 μM, 48 hours
T1 construct: BiFC fluorescent-protein fragments (type and halves not specified); expressed in transfected cells
Protocol: In order to select novel tau protein aggregation-inhibiting substances, tau-BiFC cell model, in which formation of tau oligomers in living cells is easily observed, was used. Tau-BiFC cells were aliquoted into a 384-well plate. On the next day, the cells were treated with each of the compounds prepared according to Examples 1 to 57 at concentrations of 1 μM, 3 μM, and 10 μM, together with Forskolin (at a treatment concentration of 30 μM), which is a compound inducing tau protein aggregation by activating tau phosphorylase PKA. After 48 hours, nuclei in the cells were stained using Hoechst (at a treatment concentration of 2 μg/mL), and BiFC fluorescence intensity was automatically measured using Operetta (PerkinElmer) to count stained nuclei in each well out of the entire well plate. The group treated only with Forskolin, which induces tau protein aggregation, was set to a reference point of a 100% tau protein-aggregated state, and the effects of the compounds were confirmed using the equation “BiFC fluorescence intensity due to compound synthesized according to embodiment of present invention/(fluorescence intensity of control group treated only with Forskolin inducing tau protein aggregation−fluorescence intensity of untreated control group)×100”. Furthermore, the degree of cytotoxicity induced by the newly synthesized compound was also measured based on the 100% cell viability of the group treated only with Forskolin as a reference, and the cytotoxicity value of each compound was calculated using the equation “(number of stained nuclei in group treated with compound/number of stained nuclei in group treated with Forskolin)×100”. Based on the treatment results, substances inhibiting intracellular tau protein aggregation were selected from a series of candidate groups showing a tau protein aggregation inhibition rate of 70% or more and cell viability of 100% at a compound treatment concentration of 10 μM or more.
In order to evaluate dose-dependent tau protein aggregation inhibition effects of the compounds selected according to Experimental Example 1 on tau protein aggregation, tau-BiFC cells were treated with the selected compounds at concentrations of 0.03 μM, […], 0.3 μM, 1 μM, 3 μM, 10 μM, and 30 μM, respectively, together with Forskolin (at a treatment concentration of 30 μM), which is a tau protein aggregation-inducing substance. After 48 hours, tau protein aggregation reaction and degrees of cytotoxicity were analyzed by observing images of the cells. IC50 and toxicity of the compounds were analyzed by way of nonlinear regression analysis of prism software (Graph Pad).

CYP3A4 = target: T2, CYP3A4 (Homo sapiens, UniProt P08684); test: Inhibitory effect on CYP coenzyme activity, human liver microsomes; type: in vitro ADME; conditions: 10 μM compound, human liver microsomes 0.25 mg/mL, substrate midazolam, 15 minutes
T2 construct: human liver microsomes (0.25 mg/mL); from tissue; host or cells: human liver microsomes
Protocol: (§1) The inhibitory effects of the compounds prepared according to Examples 1 to 57 on CYP coenzyme activity were identified. Specifically, human liver microsomes (0.25 mg/mL), a 0.1 M phosphate buffer solution (pH 7.4), a substrate drug cocktail of five types of drug metabolism enzymes (50 μM phenacetin, 10 μM diclofenac, 100 μM S-mephenytoin, 5 μM dextromethorphan, and 2.5 μM midazolam), and the compound at a concentration of 0 μM or 10 μM were mixed and pre-cultured at 37° C. for 5 minutes, and then further cultured at 37° C. for 15 minutes together with an NADPH generation system solution added thereto. Thereafter, the reaction was terminated by adding an acetonitrile solution containing an internal standard material (terfenadine) and centrifuged for 5 minutes (14,000 rpm, 4° C.), and then a supernatant was injected into an LC-MS/MS system for simultaneous analysis of metabolites of the substrate drugs to thereby evaluate the inhibitory effects on drug metabolism.
(§2) Metabolites of each CYP coenzyme indicator drug generated through the reaction were analyzed using the Shimadzu Nexera XR system and TSQ Vantage (Thermo). In an HPLC column, Kinetex C18 (2.1 mm×100 mm, 2.6 μm, particle size; Phenomenex, USA) was used, and mobile phases were (A) distilled water containing 0.1% formic acid and (B) acetonitrile containing 0.1% formic acid, and a gradient program shown in Table 3 was applied thereto.
(§3) The generated metabolites were quantified using a multiple reaction monitoring (MRM) quantification mode, and Xcalibur (version 1.6.1) was used for data analysis. In order to express inhibitory effects of the novel compound prepared according to the examples of the present invention on CYP coenzyme activity, CYP coenzyme activities (%) with respect to the control group not treated with the compound are shown in Table 4 below.

CYP2C19 = target: T3, CYP2C19 (Homo sapiens, UniProt P33261); test: as above; type: in vitro ADME; conditions: 10 μM compound, human liver microsomes 0.25 mg/mL, substrate S-mephenytoin, 15 minutes
T3 construct: human liver microsomes (0.25 mg/mL); from tissue; host or cells: human liver microsomes
Protocol: as §1, §2, §3

CYP2C9 = target: T4, CYP2C9 (Homo sapiens, UniProt P11712); test: as above; type: in vitro ADME; conditions: 10 μM compound, human liver microsomes 0.25 mg/mL, substrate diclofenac, 15 minutes
T4 construct: human liver microsomes (0.25 mg/mL); from tissue; host or cells: human liver microsomes
Protocol: as §1, §2, §3

CYP2D6 = target: T5, CYP2D6 (Homo sapiens, UniProt P10635); test: as above; type: in vitro ADME; conditions: 10 μM compound, human liver microsomes 0.25 mg/mL, substrate dextromethorphan, 15 minutes
T5 construct: human liver microsomes (0.25 mg/mL); from tissue; host or cells: human liver microsomes
Protocol: as §1, §2, §3

CYP1A2 = target: T6, CYP1A2 (Homo sapiens, UniProt P05177); test: as above; type: in vitro ADME; conditions: 10 μM compound, human liver microsomes 0.25 mg/mL, substrate phenacetin, 15 minutes
T6 construct: human liver microsomes (0.25 mg/mL); from tissue; host or cells: human liver microsomes
T6 sequence (P05177 1-516): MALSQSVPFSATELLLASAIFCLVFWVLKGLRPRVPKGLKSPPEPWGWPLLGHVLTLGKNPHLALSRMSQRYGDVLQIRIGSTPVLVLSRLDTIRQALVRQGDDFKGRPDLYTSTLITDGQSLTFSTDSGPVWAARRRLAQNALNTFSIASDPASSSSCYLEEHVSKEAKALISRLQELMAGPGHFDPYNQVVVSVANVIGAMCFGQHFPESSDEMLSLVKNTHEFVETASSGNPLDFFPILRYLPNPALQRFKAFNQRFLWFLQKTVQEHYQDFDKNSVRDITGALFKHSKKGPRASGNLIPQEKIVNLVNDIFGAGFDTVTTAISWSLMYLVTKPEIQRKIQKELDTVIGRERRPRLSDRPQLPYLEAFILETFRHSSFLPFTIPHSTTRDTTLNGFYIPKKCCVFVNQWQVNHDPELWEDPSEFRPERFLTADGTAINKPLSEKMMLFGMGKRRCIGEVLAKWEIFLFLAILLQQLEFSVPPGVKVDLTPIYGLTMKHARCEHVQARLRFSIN
Protocol: as §1, §2, §3

Tau-BiFC cells = test: Cell viability (stained nuclei count) in Tau-BiFC cells; type: cell-based; conditions: 10 μM compound, 48 hours; Forskolin-only group = 100% cell viability
Protocol: In order to select novel tau protein aggregation-inhibiting substances, tau-BiFC cell model, in which formation of tau oligomers in living cells is easily observed, was used. Tau-BiFC cells were aliquoted into a 384-well plate. On the next day, the cells were treated with each of the compounds prepared according to Examples 1 to 57 at concentrations of 1 μM, 3 μM, and 10 μM, together with Forskolin (at a treatment concentration of 30 μM), which is a compound inducing tau protein aggregation by activating tau phosphorylase PKA. After 48 hours, nuclei in the cells were stained using Hoechst (at a treatment concentration of 2 μg/mL), and BiFC fluorescence intensity was automatically measured using Operetta (PerkinElmer) to count stained nuclei in each well out of the entire well plate. The group treated only with Forskolin, which induces tau protein aggregation, was set to a reference point of a 100% tau protein-aggregated state, and the effects of the compounds were confirmed using the equation “BiFC fluorescence intensity due to compound synthesized according to embodiment of present invention/(fluorescence intensity of control group treated only with Forskolin inducing tau protein aggregation−fluorescence intensity of untreated control group)×100”. Furthermore, the degree of cytotoxicity induced by the newly synthesized compound was also measured based on the 100% cell viability of the group treated only with Forskolin as a reference, and the cytotoxicity value of each compound was calculated using the equation “(number of stained nuclei in group treated with compound/number of stained nuclei in group treated with Forskolin)×100”. Based on the treatment results, substances inhibiting intracellular tau protein aggregation were selected from a series of candidate groups showing a tau protein aggregation inhibition rate of 70% or more and cell viability of 100% at a compound treatment concentration of 10 μM or more. […]

T1 sequence (P10636 1-441 isoform P10636-8): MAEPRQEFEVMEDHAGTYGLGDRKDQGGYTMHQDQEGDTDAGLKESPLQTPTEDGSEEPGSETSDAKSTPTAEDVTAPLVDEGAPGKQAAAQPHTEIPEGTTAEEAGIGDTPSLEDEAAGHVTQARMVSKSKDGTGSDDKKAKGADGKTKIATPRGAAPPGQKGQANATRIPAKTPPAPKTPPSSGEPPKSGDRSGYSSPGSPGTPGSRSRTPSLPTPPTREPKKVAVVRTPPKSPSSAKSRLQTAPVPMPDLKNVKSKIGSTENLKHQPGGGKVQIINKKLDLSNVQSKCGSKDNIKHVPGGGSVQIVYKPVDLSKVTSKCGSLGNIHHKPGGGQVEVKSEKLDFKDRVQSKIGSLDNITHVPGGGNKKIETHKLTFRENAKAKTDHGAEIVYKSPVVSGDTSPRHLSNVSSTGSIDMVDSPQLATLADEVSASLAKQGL
T3 sequence (P33261 whole entry): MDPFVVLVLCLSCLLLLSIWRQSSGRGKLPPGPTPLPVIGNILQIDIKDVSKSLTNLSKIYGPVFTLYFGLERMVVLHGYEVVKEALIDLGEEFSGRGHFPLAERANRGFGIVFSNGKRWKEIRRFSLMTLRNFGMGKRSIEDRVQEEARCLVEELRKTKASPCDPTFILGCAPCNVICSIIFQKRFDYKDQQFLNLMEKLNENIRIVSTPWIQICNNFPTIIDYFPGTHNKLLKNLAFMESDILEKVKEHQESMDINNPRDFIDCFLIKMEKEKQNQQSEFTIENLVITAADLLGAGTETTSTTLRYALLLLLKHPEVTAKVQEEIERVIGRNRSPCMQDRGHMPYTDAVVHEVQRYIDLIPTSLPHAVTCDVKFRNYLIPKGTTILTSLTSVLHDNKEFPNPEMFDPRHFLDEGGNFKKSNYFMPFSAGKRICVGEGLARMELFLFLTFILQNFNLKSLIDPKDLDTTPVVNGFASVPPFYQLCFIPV
T2 sequence (P08684 whole entry): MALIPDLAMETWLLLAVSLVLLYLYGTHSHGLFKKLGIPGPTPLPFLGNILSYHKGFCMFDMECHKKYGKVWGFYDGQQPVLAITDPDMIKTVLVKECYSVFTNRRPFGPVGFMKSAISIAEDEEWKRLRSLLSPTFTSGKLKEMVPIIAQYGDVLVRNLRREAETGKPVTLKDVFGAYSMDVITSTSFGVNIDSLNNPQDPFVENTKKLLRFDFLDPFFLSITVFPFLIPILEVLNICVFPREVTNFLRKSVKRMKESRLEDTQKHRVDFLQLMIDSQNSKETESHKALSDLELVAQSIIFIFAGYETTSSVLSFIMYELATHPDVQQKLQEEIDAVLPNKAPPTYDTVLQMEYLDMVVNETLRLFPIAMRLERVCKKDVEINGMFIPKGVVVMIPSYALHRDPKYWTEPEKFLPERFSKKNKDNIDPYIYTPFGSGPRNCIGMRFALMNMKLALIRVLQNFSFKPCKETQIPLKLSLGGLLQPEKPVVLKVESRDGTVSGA
T4 sequence (P11712 whole entry): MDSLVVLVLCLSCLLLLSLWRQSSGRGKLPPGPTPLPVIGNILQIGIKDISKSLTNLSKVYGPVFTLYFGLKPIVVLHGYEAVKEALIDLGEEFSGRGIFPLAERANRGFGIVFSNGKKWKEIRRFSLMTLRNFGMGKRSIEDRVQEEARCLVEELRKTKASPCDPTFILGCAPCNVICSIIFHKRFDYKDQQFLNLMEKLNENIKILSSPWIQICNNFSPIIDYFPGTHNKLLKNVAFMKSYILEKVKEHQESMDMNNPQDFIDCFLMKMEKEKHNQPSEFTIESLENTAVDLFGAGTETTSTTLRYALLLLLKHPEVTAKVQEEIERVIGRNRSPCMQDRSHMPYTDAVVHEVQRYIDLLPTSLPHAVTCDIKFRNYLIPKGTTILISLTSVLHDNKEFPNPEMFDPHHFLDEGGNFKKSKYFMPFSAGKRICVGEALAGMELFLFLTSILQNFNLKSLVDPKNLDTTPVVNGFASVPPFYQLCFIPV
T5 sequence (P10635 whole entry): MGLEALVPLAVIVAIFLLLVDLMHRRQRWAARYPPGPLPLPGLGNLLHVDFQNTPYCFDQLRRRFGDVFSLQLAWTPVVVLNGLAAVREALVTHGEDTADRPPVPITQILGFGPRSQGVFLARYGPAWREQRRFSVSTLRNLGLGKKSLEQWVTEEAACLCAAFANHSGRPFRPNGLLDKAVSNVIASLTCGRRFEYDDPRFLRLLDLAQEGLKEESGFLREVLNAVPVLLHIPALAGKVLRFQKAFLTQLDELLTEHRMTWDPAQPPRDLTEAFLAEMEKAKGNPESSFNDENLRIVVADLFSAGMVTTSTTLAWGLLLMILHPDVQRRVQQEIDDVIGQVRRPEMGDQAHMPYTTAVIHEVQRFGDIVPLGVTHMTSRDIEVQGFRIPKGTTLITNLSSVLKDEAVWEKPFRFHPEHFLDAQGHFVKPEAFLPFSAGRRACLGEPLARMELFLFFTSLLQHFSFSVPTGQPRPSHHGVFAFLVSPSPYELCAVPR

SMILES: Cc1cc(=O)n(C)c2ccc(NN=C(C#N)C#N)cc12 [Compound 27, (1,4-dimethyl-2-oxo-1,2-dihydroquinolin-6-yl)carbonohydrazonoyl dicyanide]
- Tau BiFC in cells Response (% @10 μM) (tau protein; 10 μM compound, Forskolin-only group = 100% tau protein-aggregated state): −41%
- pIC50 (tau protein; tau-BiFC cells): 8.00
- CYP3A4 coenzyme activity (%) with respect to control group not treated (CYP3A4): 73.6%
- CYP2C19 coenzyme activity (%) with respect to control group not treated (CYP2C19): 96.3%
- CYP2C9 coenzyme activity (%) with respect to control group not treated (CYP2C9): 33.6%
- CYP2D6 coenzyme activity (%) with respect to control group not treated (CYP2D6): 86.7%
- CYP1A2 coenzyme activity (%) with respect to control group not treated (CYP1A2): 58.7%
- Cell viability (% @10 μM) (Tau-BiFC cells): 115%
